# Reference: paper PMC3501554 (Drug and alcohol dependence, 2012)
# Tests used:
# C57BL/6J mice = experiment: Observable effects; assay type: in vivo; conditions: Rimonabant (3 mg/kg s.c., 10 min before) / 50 mg placebo smoke
# [1] = following inhalation of 200 mg incinerated marijuana; ref Wilson et al., 2006; cited from earlier work
SMILES,"Hyperreflexia, percentage of mice showing presence of observable effect (C57BL/6J mice) [%]","Ptosis, percentage of mice showing presence of observable effect (C57BL/6J mice) [%]","Straub Tail, percentage of mice showing presence of observable effect (C57BL/6J mice) [%]",Brain concentration of THC [1] [ng/g]
Cc1c(C(=O)NN2CCCCC2)nn(-c2ccc(Cl)cc2Cl)c1-c1ccc(Cl)cc1 [Rimonabant],0,0,0,–
"CCCCCc1cc(O)c2c(c1)OC(C)(C)[C@@H]1CCC(C)=C[C@@H]21 [THC, Δ^9-tetrahydrocannabinol]",–,–,–,433 ± 66
